In ChEMBL document CHEMBL1144455, “A small molecule-kinase interaction map for clinical kinase inhibitors” (Nat Biotechnol, 2005):

Legend:
[1] = target: Tyrosine-protein kinase JAK1 (Homo sapiens, UniProt P23458)
[2] = target: Calcium/calmodulin-dependent protein kinase kinase 2 (Homo sapiens, UniProt Q96RR4)
[3] = target: Tyrosine-protein kinase Fer (Homo sapiens, UniProt P16591)
[4] = target: Serine/threonine-protein kinase PAK 6 (Homo sapiens, UniProt Q9NQU5)
[5] = target: Serine/threonine-protein kinase 38-like (Homo sapiens, UniProt Q9Y2H1)
[6] = target: Tyrosine-protein kinase SYK (Homo sapiens, UniProt P43405)
[7] = target: Phosphorylase b kinase gamma catalytic chain, skeletal muscle/heart isoform (Homo sapiens, UniProt Q16816)
[8] = target: Vascular endothelial growth factor receptor 3 (Homo sapiens, UniProt P35916)
[9] = target: T1, Serine/threonine-protein kinase Nek9 (Homo sapiens, UniProt Q8TD19)
T1 sequence (Q8TD19 whole entry): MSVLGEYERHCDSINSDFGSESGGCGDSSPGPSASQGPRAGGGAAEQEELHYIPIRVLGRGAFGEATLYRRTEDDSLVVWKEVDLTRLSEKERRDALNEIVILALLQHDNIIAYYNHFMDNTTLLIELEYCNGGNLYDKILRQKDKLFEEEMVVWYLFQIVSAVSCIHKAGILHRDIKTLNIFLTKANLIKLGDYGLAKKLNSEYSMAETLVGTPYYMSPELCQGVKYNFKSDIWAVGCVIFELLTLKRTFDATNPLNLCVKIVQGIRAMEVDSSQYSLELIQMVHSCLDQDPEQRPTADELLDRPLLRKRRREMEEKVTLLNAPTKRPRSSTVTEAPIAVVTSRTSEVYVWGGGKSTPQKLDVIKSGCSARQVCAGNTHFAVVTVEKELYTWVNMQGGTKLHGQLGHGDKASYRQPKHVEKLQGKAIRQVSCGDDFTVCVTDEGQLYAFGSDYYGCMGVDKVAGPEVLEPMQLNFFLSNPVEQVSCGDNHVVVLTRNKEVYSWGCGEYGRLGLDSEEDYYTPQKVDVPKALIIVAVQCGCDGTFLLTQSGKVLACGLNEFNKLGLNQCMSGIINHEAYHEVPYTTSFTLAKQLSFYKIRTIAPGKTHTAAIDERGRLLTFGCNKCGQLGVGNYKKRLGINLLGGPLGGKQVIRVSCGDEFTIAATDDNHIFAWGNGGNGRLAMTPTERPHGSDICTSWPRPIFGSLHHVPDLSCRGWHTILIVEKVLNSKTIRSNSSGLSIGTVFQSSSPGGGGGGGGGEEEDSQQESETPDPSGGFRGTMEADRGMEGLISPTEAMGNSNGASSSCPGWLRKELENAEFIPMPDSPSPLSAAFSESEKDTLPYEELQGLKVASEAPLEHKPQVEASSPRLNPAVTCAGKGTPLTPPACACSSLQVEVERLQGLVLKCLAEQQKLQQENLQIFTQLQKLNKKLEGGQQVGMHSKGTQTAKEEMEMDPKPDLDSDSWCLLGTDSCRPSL

Ephrin type-A receptor 5 = Ephrin type-A receptor 5 (Homo sapiens, UniProt P54756)
[10] = target: Mitogen-activated protein kinase 11 (Homo sapiens, UniProt Q15759)
Activated CDC42 kinase 1 = Activated CDC42 kinase 1 (Homo sapiens, UniProt Q07912)
[11] = target: Ribosomal protein S6 kinase alpha-3 (Homo sapiens, UniProt P51812)
[12] = target: Ribosomal protein S6 kinase alpha-2 (Homo sapiens, UniProt Q15349)
[13] = target: Tyrosine-protein kinase Fgr (Homo sapiens, UniProt P09769)
[14] = target: Serine/threonine-protein kinase PAK 1 (Homo sapiens, UniProt Q13153)
[15] = target: Tyrosine-protein kinase Yes (Homo sapiens, UniProt P07947)
[16] = target: MAP kinase-interacting serine/threonine-protein kinase 2 (Homo sapiens, UniProt Q9HBH9)
[17] = target: Fibroblast growth factor receptor 2 (Homo sapiens, UniProt P21802)
[18] = target: BMP-2-inducible protein kinase (Homo sapiens, UniProt Q9NSY1)
[19] = target: Serine/threonine-protein kinase 10 (Homo sapiens, UniProt O94804)

Measured: Kd

Vascular endothelial growth factor receptor 3, sequence (P35916 whole entry): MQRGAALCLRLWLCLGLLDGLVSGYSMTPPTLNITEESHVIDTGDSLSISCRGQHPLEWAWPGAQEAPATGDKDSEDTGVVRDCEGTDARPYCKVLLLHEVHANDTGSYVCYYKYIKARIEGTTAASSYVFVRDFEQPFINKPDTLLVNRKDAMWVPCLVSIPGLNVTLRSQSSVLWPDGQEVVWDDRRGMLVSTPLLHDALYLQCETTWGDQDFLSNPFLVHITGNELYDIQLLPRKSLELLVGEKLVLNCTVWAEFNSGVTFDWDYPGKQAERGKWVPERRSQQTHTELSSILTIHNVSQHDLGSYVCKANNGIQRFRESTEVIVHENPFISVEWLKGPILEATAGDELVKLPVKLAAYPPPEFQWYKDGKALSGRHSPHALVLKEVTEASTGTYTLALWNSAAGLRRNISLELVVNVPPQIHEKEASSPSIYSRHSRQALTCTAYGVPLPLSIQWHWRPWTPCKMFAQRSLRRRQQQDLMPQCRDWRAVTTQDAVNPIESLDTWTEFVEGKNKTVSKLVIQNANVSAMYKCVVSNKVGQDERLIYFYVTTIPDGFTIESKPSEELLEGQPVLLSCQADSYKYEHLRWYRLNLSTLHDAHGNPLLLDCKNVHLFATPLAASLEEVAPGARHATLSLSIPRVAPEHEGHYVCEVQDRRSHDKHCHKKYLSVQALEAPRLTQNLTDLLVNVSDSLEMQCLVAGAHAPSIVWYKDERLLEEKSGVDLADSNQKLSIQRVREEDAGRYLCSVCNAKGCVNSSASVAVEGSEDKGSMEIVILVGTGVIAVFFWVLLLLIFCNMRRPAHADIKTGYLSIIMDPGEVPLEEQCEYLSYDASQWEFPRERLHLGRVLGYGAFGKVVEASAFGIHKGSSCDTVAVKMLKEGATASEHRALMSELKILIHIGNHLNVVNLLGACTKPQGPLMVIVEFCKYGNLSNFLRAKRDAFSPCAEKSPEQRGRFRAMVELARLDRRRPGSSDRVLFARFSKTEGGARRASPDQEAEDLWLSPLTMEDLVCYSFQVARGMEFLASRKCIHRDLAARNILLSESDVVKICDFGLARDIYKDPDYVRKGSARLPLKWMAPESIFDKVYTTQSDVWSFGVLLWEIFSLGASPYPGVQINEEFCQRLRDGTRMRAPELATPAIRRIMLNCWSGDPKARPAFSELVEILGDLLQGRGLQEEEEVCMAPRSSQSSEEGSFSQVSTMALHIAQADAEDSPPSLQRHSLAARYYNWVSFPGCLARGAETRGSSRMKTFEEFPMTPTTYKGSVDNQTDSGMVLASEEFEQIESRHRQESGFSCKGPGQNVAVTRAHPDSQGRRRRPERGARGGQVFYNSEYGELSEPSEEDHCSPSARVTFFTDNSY
Serine/threonine-protein kinase PAK 6, sequence (Q9NQU5 whole entry): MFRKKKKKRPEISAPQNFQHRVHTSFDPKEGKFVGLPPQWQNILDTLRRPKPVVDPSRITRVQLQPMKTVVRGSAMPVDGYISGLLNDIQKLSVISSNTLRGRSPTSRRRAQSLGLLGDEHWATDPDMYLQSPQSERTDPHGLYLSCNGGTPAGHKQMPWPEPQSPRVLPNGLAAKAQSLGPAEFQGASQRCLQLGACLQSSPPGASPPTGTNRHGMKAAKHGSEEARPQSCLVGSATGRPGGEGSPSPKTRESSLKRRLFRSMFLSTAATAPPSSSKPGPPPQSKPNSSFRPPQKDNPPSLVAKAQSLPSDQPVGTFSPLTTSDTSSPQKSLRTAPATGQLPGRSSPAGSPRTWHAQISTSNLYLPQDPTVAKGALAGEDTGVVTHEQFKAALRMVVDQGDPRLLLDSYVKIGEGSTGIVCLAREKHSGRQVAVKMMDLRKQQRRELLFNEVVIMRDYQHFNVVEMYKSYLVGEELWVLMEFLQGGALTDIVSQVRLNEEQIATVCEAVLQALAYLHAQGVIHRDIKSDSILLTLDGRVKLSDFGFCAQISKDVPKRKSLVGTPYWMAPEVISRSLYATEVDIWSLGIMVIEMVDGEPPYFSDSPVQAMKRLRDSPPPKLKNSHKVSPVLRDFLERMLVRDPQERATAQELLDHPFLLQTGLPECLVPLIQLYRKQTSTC
Tyrosine-protein kinase Yes, sequence (P07947 whole entry): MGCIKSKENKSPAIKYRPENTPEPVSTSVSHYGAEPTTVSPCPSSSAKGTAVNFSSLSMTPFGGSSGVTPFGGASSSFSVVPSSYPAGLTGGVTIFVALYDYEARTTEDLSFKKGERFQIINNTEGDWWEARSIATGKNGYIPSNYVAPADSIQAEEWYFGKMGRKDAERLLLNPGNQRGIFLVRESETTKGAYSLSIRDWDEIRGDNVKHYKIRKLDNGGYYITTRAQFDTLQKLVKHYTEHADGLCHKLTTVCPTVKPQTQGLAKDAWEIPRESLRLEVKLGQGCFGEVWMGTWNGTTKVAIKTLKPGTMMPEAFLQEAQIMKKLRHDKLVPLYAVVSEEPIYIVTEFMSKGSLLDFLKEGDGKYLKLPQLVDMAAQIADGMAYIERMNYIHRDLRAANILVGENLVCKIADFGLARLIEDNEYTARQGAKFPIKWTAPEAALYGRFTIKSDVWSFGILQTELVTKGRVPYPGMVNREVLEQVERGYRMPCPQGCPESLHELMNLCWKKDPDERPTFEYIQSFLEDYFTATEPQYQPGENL
Fibroblast growth factor receptor 2, sequence (P21802 whole entry): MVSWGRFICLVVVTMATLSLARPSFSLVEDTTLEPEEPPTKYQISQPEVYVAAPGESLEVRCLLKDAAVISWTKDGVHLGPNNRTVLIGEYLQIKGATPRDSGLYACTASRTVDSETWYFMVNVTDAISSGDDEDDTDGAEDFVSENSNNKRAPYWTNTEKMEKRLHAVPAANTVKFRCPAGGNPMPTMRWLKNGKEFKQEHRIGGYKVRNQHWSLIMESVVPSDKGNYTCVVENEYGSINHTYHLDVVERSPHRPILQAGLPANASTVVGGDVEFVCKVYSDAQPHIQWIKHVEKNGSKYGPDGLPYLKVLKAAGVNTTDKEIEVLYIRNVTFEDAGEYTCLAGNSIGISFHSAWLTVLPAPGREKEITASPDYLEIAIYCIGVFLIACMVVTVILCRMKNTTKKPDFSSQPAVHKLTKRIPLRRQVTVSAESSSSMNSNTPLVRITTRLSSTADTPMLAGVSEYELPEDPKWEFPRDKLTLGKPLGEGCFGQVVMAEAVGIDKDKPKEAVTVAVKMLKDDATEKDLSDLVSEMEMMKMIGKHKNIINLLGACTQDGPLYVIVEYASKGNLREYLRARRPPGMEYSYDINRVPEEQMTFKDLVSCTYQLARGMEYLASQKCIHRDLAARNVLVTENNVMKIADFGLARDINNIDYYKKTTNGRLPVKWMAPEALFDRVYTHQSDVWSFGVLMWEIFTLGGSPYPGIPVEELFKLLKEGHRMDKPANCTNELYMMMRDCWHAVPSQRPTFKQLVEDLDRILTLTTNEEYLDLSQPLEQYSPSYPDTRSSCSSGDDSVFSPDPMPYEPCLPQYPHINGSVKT
Mitogen-activated protein kinase 11, sequence (Q15759 whole entry): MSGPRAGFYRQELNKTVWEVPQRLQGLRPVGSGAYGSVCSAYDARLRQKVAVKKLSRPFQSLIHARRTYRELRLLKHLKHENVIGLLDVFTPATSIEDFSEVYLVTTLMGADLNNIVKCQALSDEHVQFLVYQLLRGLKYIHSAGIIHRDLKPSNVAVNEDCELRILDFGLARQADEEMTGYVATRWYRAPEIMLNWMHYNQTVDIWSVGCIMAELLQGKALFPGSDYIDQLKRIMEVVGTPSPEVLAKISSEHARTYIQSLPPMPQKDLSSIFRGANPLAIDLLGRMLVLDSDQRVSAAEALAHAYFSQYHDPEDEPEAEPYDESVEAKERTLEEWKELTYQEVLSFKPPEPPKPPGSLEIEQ
Phosphorylase b kinase gamma catalytic chain, skeletal muscle/heart isoform, sequence (Q16816 whole entry, canonical isoform): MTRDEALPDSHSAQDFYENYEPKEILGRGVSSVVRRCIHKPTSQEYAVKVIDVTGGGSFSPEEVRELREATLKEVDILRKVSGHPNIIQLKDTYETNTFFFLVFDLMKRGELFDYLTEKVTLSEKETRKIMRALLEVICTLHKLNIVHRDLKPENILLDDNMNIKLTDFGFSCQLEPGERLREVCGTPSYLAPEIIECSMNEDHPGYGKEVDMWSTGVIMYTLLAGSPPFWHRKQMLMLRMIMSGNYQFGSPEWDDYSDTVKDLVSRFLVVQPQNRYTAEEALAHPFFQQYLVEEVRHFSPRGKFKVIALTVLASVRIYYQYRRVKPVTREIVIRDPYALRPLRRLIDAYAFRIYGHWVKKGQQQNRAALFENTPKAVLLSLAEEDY
MAP kinase-interacting serine/threonine-protein kinase 2, sequence (Q9HBH9 whole entry): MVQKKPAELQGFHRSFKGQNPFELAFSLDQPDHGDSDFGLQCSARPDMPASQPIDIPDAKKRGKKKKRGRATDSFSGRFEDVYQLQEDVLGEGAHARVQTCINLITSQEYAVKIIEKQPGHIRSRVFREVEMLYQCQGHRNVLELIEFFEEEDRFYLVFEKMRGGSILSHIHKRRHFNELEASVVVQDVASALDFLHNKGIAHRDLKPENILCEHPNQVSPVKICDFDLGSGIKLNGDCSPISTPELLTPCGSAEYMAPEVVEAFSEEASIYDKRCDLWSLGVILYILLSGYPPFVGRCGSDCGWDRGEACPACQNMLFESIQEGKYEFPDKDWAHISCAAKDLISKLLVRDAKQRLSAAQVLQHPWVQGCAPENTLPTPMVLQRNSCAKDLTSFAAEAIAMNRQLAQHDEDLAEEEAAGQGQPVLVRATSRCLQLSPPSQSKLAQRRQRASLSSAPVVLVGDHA

C#Cc1cccc(Nc2ncnc3cc(OCCOC)c(OCCOC)cc23)c1 [ERLOTINIB]
not listed: [16] | [17] | [18] | [19]
Not Active: all other assays above

Cc1ccc(NC(=O)c2ccc(CN3CCN(C)CC3)cc2)cc1Nc1nccc(-c2cccnc2)n1 [IMATINIB]
not listed: [6]
Not Active: all other assays above

O=c1ncn2nc(Sc3ccc(F)cc3F)ccc2c1-c1c(Cl)cccc1Cl [NEFLAMAPIMOD]
not listed: Ephrin type-A receptor 5 | [10] | [13] | [15]
Not Active: all other assays above

CCOc1cc2ncc(C#N)c(Nc3ccc(F)c(Cl)c3)c2cc1NC(=O)/C=C/CN(C)C [PELITINIB]
Not Active: [1] | [16] | [17] | [4] | [8] | [9] | [10] | [11] | [13]

Oc1ccc(-c2nc(-c3ccc(F)cc3)c(-c3ccncc3)[nH]2)cc1 [SB-202190]
not listed: [10]
Not Active: all other assays above

C[S+]([O-])c1ccc(-c2nc(-c3ccc(F)cc3)c(-c3ccncc3)[nH]2)cc1 (centres undefined) [SB-203580]
not listed: [10]
Not Active: all other assays above

CC[C@H](CO)Nc1nc(NCc2ccccc2)c2ncn(C(C)C)c2n1 [SELICICLIB]
not listed: [12]
Not Active: all other assays above

Oc1c2ccccc2c2c3c(cccc13)N=N2 [SP-600125]
not listed: [2] | [5] | [6] | [12] | [16] | [18]
Not Active: all other assays above

COc1cc2c(N3CCN(C(=O)Nc4ccc(OC(C)C)cc4)CC3)ncnc2cc1OCCCN1CCCCC1 [TANDUTINIB]
Not Active: all assays above
